{"source": "patent US11993579B1", "about": "“3-(1-(3-(dimethylamino)propyl)-4,5-diphenyl-1h-imidazol-2-yl)pyridin-4-ol as an anti-microbial compound” (KING FAISAL UNIVERSITY, priority 2023, dated 2024)", "key": {"Candida albicans": {"test_system": "Candida albicans", "experiment": "Anti-microbial activity by agar dilution, Candida albicans", "type": "cell-based", "details": "after 10, 20, 40, and 60 min at all dilutions 1:100, 1:200, 1:400, 1:800", "procedure": "(§1) The antibacterial properties of the synthesized compounds were studied by the method of agar dilution. Test solutions of each compound was prepared in a concentration of 1% using dimethylformamide as a solvent. Then the test solutions were diluted in a physiological solution to obtain the final experimental dilutions of 1:100, 1:200, 1:400, and 1:800. The effect of these substances was compared with furacillin in a controllable study. The testing microbes used were gram positive bacteria St. Aereus, gram negative bacteria E. Coli, and Ps. aeruginosa and Candida albicans fungi. The experiments used for this survey were a meat-pentonlu agar (EPA) for cultivation of bacteria and a Saburo environment for fungi. Each experiment used 1 mL of test solution on each plate for 500 min. Next, 2 drops of emulsified test solution with microbes feel were added. All experimental samples were taken from the agar after 10, 40, 60 minutes in the environment on the basis of Patrk planted. Bacteria were cultivated at a temperature of 37° C. for 1 day and the mushroom was kept in a thermostat for […] at a temperature of 28° C. Then results were checked."}, "Ps. Aeroqonaza": {"test_system": "Ps. Aeroqonaza", "experiment": "Anti-microbial activity by agar dilution, Ps. Aeroqonaza", "type": "cell-based, Ps. aeruginosa", "details": "after 10, 20, 40, and 60 min at all dilutions 1:100, 1:200, 1:400, 1:800", "procedure": "as §1"}, "St. Aereus": {"test_system": "St. Aereus", "experiment": "Anti-microbial activity by agar dilution, St. Aereus", "type": "cell-based", "details": "after 10, 20, 40, and 60 min at all dilutions 1:100, 1:200, 1:400, 1:800", "procedure": "as §1"}, "E. Coli": {"test_system": "E. Coli", "experiment": "Anti-microbial activity by agar dilution, E. Coli", "type": "cell-based", "details": "after 10, 20, 40, and 60 min at all dilutions 1:100, 1:200, 1:400, 1:800", "procedure": "as §1"}}, "data": [{"smiles": "CN(C)CCCn1c(-c2cnccc2O)nc(-c2ccccc2)c1-c1ccccc1", "note": "[3-(1-(3-(dimethylamino)propyl)-4,5-diphenyl-1H-imidazol-2-yl)pyridin-4-ol]", "values": [{"measurement": "inhibition activity, Candida albicans (in words)", "setting": "Candida albicans", "value": "showed the most inhibition activity"}, {"measurement": "inhibition activity, Ps. aeruginosa (in words)", "setting": "Ps. Aeroqonaza", "value": "showed the most inhibition activity"}, {"measurement": "inhibition activity, St. Aereus (in words)", "setting": "St. Aereus", "value": "showed the most inhibition activity"}, {"measurement": "melting point", "value": "137 to 139", "unit": "°C"}, {"measurement": "inhibition activity, E. Coli (in words)", "setting": "E. Coli", "value": "showed the most inhibition activity"}]}]}
